PubChem BioAssay AID463149 (The Scripps Research Institute Molecular Screening Center, 2010)

Assays:
Assay in all cases: PME-1 inhibition and serine hydrolase selectivity by ABPP – cell lysate, gel-based competitive ABPP, fluorescence, powder samples, selectivity assay, late-stage follow-up (AID 463149);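 also: 0% = DMSO-treated band intensity and 100% = blank gel background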
[1] = system: Anti-Target ABHD10; conditions: HeLa soluble proteome, FP-Rh fluorescence, stronger effect = higher value
[2] = system: Anti-Target CES; conditions: HeLa soluble proteome, FP-Rh fluorescence, measured here: Anti-Target CES, stronger effect = higher value
[3] = system: Anti-Target PREP; conditions: HeLa soluble proteome, FP-Rh fluorescence, measured here: Anti-Target PREP, stronger effect = higher value
[4] = target: Acylamino-acid-releasing enzyme (Homo sapiens) (UniProt P13798); conditions: HeLa soluble proteome, FP-Rh fluorescence, measured here: Anti-Target APEH, stronger effect = higher value
Chain of Acylamino-acid-releasing enzyme (Homo sapiens) (P13798 whole entry, looked up): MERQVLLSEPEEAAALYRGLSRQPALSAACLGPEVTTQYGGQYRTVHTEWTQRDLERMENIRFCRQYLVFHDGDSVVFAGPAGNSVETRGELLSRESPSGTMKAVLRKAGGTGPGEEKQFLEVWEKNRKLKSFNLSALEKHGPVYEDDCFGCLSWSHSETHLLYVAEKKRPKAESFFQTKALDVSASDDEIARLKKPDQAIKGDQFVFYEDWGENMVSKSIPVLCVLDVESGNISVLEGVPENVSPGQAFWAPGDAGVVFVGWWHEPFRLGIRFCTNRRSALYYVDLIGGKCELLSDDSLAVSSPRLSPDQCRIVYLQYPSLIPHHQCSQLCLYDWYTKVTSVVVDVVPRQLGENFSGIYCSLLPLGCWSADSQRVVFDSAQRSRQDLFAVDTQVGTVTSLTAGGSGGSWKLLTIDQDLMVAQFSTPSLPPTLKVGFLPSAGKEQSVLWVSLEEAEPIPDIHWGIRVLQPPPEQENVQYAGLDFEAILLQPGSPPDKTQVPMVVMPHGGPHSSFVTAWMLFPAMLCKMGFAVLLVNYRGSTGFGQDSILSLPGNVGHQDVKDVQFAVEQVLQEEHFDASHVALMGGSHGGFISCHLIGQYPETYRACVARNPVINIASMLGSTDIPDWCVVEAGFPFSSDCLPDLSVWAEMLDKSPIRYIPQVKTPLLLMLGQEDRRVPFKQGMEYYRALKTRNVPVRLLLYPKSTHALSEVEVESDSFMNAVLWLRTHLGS

[5] = target: Protein phosphatase methylesterase 1 (Homo sapiens) (UniProt Q9Y570); conditions: HeLa soluble proteome, FP-Rh fluorescence, stronger effect = higher value
Chain of Protein phosphatase methylesterase 1 (Homo sapiens) (Q9Y570 whole entry, looked up): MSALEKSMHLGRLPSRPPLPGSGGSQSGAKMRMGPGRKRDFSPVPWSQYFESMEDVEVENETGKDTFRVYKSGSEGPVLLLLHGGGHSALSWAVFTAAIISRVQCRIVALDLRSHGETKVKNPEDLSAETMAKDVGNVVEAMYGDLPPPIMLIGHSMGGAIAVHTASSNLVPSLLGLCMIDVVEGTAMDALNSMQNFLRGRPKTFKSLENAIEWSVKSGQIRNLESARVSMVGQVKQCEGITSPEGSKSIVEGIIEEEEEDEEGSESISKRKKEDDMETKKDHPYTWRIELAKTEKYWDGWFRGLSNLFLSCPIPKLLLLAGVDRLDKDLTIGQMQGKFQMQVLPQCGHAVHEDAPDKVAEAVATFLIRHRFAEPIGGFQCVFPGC

[6] = target: Fatty acid synthase (Homo sapiens) (UniProt P49327); conditions: HeLa soluble proteome, FP-Rh fluorescence, measured here: Anti-Target FAS, stronger effect = higher value
Chain of Fatty acid synthase (Homo sapiens) (P49327 whole entry, looked up): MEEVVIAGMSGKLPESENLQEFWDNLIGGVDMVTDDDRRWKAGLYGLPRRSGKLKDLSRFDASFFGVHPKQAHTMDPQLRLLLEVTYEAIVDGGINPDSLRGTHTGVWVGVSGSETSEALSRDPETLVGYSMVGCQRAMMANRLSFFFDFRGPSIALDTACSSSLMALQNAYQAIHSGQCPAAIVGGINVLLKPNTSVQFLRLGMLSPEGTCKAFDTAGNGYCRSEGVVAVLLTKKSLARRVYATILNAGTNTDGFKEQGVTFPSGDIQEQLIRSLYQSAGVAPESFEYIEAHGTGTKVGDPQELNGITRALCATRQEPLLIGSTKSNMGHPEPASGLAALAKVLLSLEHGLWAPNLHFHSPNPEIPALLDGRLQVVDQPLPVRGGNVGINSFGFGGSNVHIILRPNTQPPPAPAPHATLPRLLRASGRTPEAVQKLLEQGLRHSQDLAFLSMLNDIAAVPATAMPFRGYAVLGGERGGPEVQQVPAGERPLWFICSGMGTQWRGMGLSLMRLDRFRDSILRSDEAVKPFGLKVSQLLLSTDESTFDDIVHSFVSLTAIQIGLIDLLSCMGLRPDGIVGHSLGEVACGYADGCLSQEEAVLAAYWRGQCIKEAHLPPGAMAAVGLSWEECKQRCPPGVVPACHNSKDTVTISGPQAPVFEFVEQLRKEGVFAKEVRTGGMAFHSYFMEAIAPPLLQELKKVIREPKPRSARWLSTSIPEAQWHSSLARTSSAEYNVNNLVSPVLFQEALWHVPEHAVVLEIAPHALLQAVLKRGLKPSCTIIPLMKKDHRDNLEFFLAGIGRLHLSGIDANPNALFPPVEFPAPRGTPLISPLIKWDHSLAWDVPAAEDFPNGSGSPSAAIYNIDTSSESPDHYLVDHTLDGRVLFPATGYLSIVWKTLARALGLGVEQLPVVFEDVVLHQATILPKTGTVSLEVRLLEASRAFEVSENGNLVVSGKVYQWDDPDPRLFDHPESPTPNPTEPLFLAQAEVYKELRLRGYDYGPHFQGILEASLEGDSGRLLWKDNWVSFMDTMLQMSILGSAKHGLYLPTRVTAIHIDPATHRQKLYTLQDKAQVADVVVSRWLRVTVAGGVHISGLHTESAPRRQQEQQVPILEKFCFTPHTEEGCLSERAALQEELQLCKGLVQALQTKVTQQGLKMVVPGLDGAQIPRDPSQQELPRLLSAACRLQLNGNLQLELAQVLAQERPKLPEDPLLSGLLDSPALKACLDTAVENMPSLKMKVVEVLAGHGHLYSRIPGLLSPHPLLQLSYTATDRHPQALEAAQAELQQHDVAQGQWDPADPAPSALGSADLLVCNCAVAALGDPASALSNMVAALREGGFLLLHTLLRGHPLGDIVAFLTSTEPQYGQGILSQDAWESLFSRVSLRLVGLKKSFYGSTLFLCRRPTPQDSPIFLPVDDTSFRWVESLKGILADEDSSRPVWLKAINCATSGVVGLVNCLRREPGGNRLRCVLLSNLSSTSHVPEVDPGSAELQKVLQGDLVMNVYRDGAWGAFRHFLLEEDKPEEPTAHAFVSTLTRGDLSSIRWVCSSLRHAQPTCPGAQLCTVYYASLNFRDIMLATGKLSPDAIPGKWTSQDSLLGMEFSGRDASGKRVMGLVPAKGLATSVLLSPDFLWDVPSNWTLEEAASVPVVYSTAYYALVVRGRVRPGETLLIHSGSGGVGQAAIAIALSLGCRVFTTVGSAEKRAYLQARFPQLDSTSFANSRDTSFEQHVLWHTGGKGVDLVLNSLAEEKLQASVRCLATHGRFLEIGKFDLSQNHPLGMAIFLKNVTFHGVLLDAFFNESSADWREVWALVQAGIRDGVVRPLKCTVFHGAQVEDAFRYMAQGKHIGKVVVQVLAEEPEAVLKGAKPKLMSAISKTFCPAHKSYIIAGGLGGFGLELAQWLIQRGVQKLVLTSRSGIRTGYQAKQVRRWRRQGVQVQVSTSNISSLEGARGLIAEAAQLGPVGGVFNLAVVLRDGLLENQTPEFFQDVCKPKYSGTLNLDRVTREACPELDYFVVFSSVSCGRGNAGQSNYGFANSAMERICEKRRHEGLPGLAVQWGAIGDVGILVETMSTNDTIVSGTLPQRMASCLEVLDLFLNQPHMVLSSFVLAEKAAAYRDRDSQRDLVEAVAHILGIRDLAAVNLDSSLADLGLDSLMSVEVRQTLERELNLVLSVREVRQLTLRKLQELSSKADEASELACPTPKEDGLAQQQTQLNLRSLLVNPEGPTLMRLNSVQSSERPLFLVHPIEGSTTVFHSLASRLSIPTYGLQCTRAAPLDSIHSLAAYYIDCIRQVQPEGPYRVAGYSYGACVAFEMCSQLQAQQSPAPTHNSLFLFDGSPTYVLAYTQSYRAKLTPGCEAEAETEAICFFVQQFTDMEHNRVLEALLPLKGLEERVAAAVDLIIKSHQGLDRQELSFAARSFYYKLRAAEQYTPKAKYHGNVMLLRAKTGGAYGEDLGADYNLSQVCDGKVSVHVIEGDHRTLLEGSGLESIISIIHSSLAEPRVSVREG

[7] = measured here: Anti-Target ABHD10, at 1 µM
[8] = measured here: Anti-Target ABHD10, at 20 µM

SMILES	inhibition [1, 7]	inhibition [1, 8]	inhibition ([2]; at 1 µM)	inhibition ([2]; at 20 µM)	inhibition ([3]; at 1 µM)	inhibition ([3]; at 20 µM)	inhibition ([4]; at 1 µM)	inhibition ([4]; at 20 µM)	inhibition ([5]; PME-1, inhibition, at 1 µM)	inhibition ([5]; PME-1, inhibition, at 20 µM)	inhibition ([6]; at 1 µM)	inhibition ([6]; at 20 µM)	inhibition ([5]; PME-1, at 0.1 µM)
CC[C@]1(c2cccc(C)c2)C(=O)N(C(=O)OC)N1C(=O)OC	0%	0%	> 50%	> 50%	0%	0%	0%	0%	50%	100%	0%	> 50%	–
COC(=O)N1C(=O)[C@](c2ccccc2)(C2CCCC2)N1C(=O)OC	0%	0%	0%	0%	0%	0%	0%	> 50%	100%	100%	0%	> 50%	100%
CC[C@@]1(c2ccccc2C)C(=O)N(C(=O)OC)N1C(=O)OC	0%	0%	> 50%	> 50%	0%	0%	0%	0%	50%	100%	0%	0%	–
COC(=O)N1C(=O)[C@@](c2ccc(OC)cc2)(C(C)C)N1C(=O)OC	0%	0%	0%	> 50%	0%	0%	0%	0%	0%	50%	0%	0%	–
CCOC(=O)N1C(=O)[C@@](CC)(c2ccccc2)N1C(=O)OCC	0%	50%	0%	> 50%	0%	> 50%	0%	0%	0%	0%	0%	0%	–
